GI50 and TGI data for eight molecules are collected here from PubChem BioAssay (NCI).

Values joined by “and” are separate entries in the source; they are usually repeats but may differ in a detail not shown here. Equal values may be shown once.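 Test compounds were applied to cells in 96-well plates for 48 hours at 5 doses. Abbreviation: GI50, concentration required for 50% inhibition of growth. TGI marks complete inhibition of growth.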

Among the test systems are BT-549 breast; EKVX NSCLC; HCT-15 colon; HT29 colon; MOLT-4 leukemia; NCI-H23 lung; PC-3 prostate; SK-MEL-5 melanoma; SN12C renal; K-562 leukemia.
Experiment in all cases: inhibition of tumour cell growth, NCI panel, 48 h

Turning to `COC(=O)/C=C1/SC(=Nc2cccc(Cl)c2)N(CCc2c[nH]c3ccc(O)cc23)C1=O`, the GI50 was 1.24 µM in the test with BT-549 breast; 2.19 µM with EKVX NSCLC; 1.5 µM with HCT-15 colon; 1.87 µM in the test on HT29 colon; 1 µM in the test on MOLT-4 leukemia; 1.86 µM in the test with NCI-H23 lung. Besides, the GI50 is 1.74 µM in the test with PC-3 prostate, 1.99 µM with SK-MEL-5 melanoma and 1.79 µM in the test with SN12C renal. Also, the TGI in the test with BT-549 breast worked out at 3.05 µM; with EKVX NSCLC, 5.51 µM; with HCT-15 colon, 3.32 µM; in the test with HT29 colon, 3.57 µM; with MOLT-4 leukemia, 5.1 µM; with NCI-H23 lung, 4.34 µM. Moreover, the TGI was determined as 3.87 µM with PC-3 prostate, 4.19 µM in the test on SK-MEL-5 melanoma and 3.67 µM in the test with SN12C renal.

For the molecule `COc1ccc(-c2ncnc3c2ncn3CC#CCCl)cc1`, the GI50 with BT-549 breast was 2.98 µM; in the test on EKVX NSCLC, 12.8 µM; in the test with HCT-15 colon, 4.07 µM; in the test on HT29 colon it was 7.12 µM; in the test on K-562 leukemia it was 8.06 µM; in the test with MOLT-4 leukemia it was 2.68 µM. Besides, the GI50 with NCI-H23 lung is 7.83 µM; in the test on PC-3 prostate, 6.82 µM; with SK-MEL-5 melanoma it was 3.16 µM; in the test with SN12C renal, 2.26 µM. Besides, the TGI in the test on BT-549 breast was 13.6 µM; with EKVX NSCLC, 29.6 µM; with HCT-15 colon, 17.7 µM; in the test with HT29 colon, 24.6 µM; with K-562 leukemia, greater than 100 µM; in the test on MOLT-4 leukemia, greater than 100 µM. Also, the TGI in the test with NCI-H23 lung was 21.4 µM; in the test on PC-3 prostate, 24.7 µM; in the test on SK-MEL-5 melanoma it was 12.4 µM; with SN12C renal, 6.32 µM.

Consider `O=C(O)Cc1cccc2c(=O)cc(-c3ccccc3)oc12`, for which the GI50 was greater than 1000 µM in the test with BT-549 breast; 611 µM in the test on EKVX NSCLC; 343 µM with HCT-15 colon; 489 µM in the test on HT29 colon; 148 µM with K-562 leukemia; 288 µM in the test on MOLT-4 leukemia. For the same molecule, the GI50 with NCI-H23 lung was 581 µM; in the test on PC-3 prostate, greater than 955 µM; in the test on SK-MEL-5 melanoma it was 407 µM; in the test with SN12C renal it was 508 µM. For the same molecule, the TGI in the test with BT-549 breast was 250 µM and > 1000 µM; with EKVX NSCLC it was 250 µM and > 1000 µM; with HCT-15 colon, 250 µM and > 1000 µM; in the test on HT29 colon it was greater than 1000 µM; with K-562 leukemia, 250 µM and > 844 µM; with MOLT-4 leukemia, greater than 824 µM. Also, the TGI in the test on NCI-H23 lung is greater than 1000 µM; in the test with PC-3 prostate, greater than 1000 µM; in the test on SK-MEL-5 melanoma, 250 µM and > 876 µM; in the test on SN12C renal, 250 µM and > 964 µM.

As to `CCOC(=O)c1ccc(-n2cnc(-c3ccc([N+](=O)[O-])cc3)c2)cc1`, the TGI with BT-549 breast, with EKVX NSCLC, in the test with HCT-15 colon, with HT29 colon, in the test with K-562 leukemia and in the test with MOLT-4 leukemia was greater than 100 µM throughout. The TGI is greater than 100 µM in the test with NCI-H23 lung, greater than 100 µM in the test on PC-3 prostate, 74.5 µM in the test on SK-MEL-5 melanoma and greater than 100 µM in the test with SN12C renal.

For `O=C1c2c(c(=O)[nH]c3ccccc23)[C@H](c2ccccc2)[C@@H]2CCCN12`, the GI50 was 4.84 µM in the test with BT-549 breast; 13.5 µM in the test with EKVX NSCLC; 3.37 µM with HCT-15 colon; 5.63 µM in the test with K-562 leukemia; 5.12 µM in the test with MOLT-4 leukemia; 2.77 µM in the test on NCI-H23 lung. Further, the GI50 in the test on PC-3 prostate was 6.2 µM; in the test with SK-MEL-5 melanoma, 2.01 µM; in the test on SN12C renal it was 3.38 µM. Further, the TGI with BT-549 breast is 55.2 µM; in the test with EKVX NSCLC it was 55.8 µM; in the test with HCT-15 colon, greater than 100 µM; in the test with K-562 leukemia, greater than 100 µM; in the test on MOLT-4 leukemia, 39.2 µM; with NCI-H23 lung, 37.9 µM. Moreover, the TGI in the test on PC-3 prostate was greater than 100 µM; with SK-MEL-5 melanoma, 5.07 µM; in the test on SN12C renal, greater than 100 µM.

Consider `NCCCCC(NC(=O)C(N)CCCN=C(N)N)C(=O)NC(CCCCN)C(=O)NC(CCCN=C(N)N)C(=O)NC(CCCN=C(N)N)C(=O)NC(CCC(N)=O)C(=O)NC(CCCN=C(N)N)C(=O)NC(CCCN=C(N)N)C(=O)NC(CCCN=C(N)N)C(=O)NCC(=O)NCC(=O)O` (configuration not stated), for which the GI50 in the test with BT-549 breast, with EKVX NSCLC, in the test on HCT-15 colon, in the test with HT29 colon, with K-562 leukemia and with MOLT-4 leukemia was greater than 50 µM each time. Besides, the GI50 in the test on NCI-H23 lung, in the test with PC-3 prostate, in the test on SK-MEL-5 melanoma and in the test on SN12C renal was greater than 50 µM each time. The TGI in the test with BT-549 breast, in the test with EKVX NSCLC, with HCT-15 colon, in the test with HT29 colon, with K-562 leukemia and with MOLT-4 leukemia was greater than 50 µM throughout. Further, the TGI in the test with NCI-H23 lung, with PC-3 prostate, in the test on SK-MEL-5 melanoma and in the test with SN12C renal was greater than 50 µM in each case.

Turning to `Cc1c(Cn2c(C)nc3c(C(=O)O)cc(N4CCOCC4)cc32)cccc1C(F)(F)F`, the GI50 in the test with BT-549 breast is 25.8 µM; with HCT-15 colon, 4.58 µM; in the test on HT29 colon it was 57.3 µM; in the test on K-562 leukemia, greater than 77.2 µM; in the test with MOLT-4 leukemia, 56.6 µM; with NCI-H23 lung it was 81.5 µM. In addition, the GI50 with PC-3 prostate is 6.38 µM; in the test with SK-MEL-5 melanoma, 47.1 µM; in the test with SN12C renal, 41.5 µM. The TGI with BT-549 breast, in the test on HCT-15 colon, with HT29 colon, in the test with K-562 leukemia, in the test on MOLT-4 leukemia and in the test on NCI-H23 lung was greater than 100 µM each time. The TGI in the test on PC-3 prostate, in the test on SK-MEL-5 melanoma and in the test on SN12C renal was greater than 100 µM each time.

Turning to `C[C@@H]1C[C@H](N)C[C@H](c2ccncc2NC(=O)c2ccc(F)c(-c3c(F)cccc3F)n2)C1`, the GI50 is 10.3 µM and 5.17 µM in the test with BT-549 breast; 4.35 µM and > 10 µM in the test on EKVX NSCLC; 11.6 µM and > 10 µM in the test with HCT-15 colon; 4.17 µM and 5.55 µM in the test on HT29 colon; 4.1 µM and 4.22 µM in the test with K-562 leukemia; 4.91 µM and 5.14 µM with MOLT-4 leukemia. In addition, the GI50 in the test on PC-3 prostate was 3.83 µM and 2.68 µM; in the test with SK-MEL-5 melanoma it was 13 µM and 1.58 µM; in the test with SN12C renal, 12.3 µM and > 10 µM. The TGI was 22.6 µM and > 10 µM in the test with BT-549 breast; 21.1 µM and > 10 µM in the test with EKVX NSCLC; 25.7 µM and > 10 µM in the test with HCT-15 colon; 18.7 µM and > 10 µM with HT29 colon; 21.3 µM and > 10 µM with K-562 leukemia; 20.6 µM and > 10 µM with MOLT-4 leukemia. The TGI is 17.5 µM and > 10 µM in the test with PC-3 prostate; 26.2 µM and 5.01 µM in the test on SK-MEL-5 melanoma; 25.7 µM and > 10 µM in the test on SN12C renal.
